The values that follow are results of earlier work, collected in paper PMC6611711 (Molecular cancer therapeutics, 2018).

In data set [1] the test system is panel of cancer cell lines. The note with it: inhibition of choline kinase alpha (CKα).
The subject of another data set is tumor xenograft. The settings on record: mice.

As to `CN(C)c1cc[n+](CCCCCCCCCCCC[n+]2ccc(N(C)C)cc2)cc1.[Br-].[Br-]` [ICL-CCIC-0019], the “Growth of a panel of cancer cell lines” value in data set [1] was “suppressed growth of a panel of cancer cell lines”. The Tumor xenograft growth entry in the data set on tumor xenograft is “inhibited tumor xenograft growth in mice”.
